# Experimental data taken from PubChem BioAssay (NCI).
#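 Growth conditions: 96-well plates. Treatment: test compound, 48 hours, 5 concentrations. Analysis: linear interpolation between bracketing concentrations; unreached endpoints set to highest concentration. TGI denotes the concentration required for complete inhibition of growth.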
# Legend:
# Assay in all cases: NCI-60 cell line screen, 48 h
# 786-0 renal = system: 786-0 renal
# A498 renal = system: A498 renal
# A549 NSCLC = system: A549 NSCLC
# ACHN renal = system: ACHN renal
# BT-549 breast = system: BT-549 breast
# CAKI-1 renal = system: CAKI-1 renal
# CCRF-CEM leukemia = system: CCRF-CEM leukemia
# COLO 205 colon = system: COLO 205 colon
# DU-145 prostate = system: DU-145 prostate
# EKVX NSCLC = system: EKVX NSCLC
# HCT-116 colon = system: HCT-116 colon
# HCT-15 colon = system: HCT-15 colon
# HL-60(TB) leukemia = system: HL-60(TB) leukemia
# HOP-62 NSCLC = system: HOP-62 NSCLC
# HOP-92 NSCLC = system: HOP-92 NSCLC
# HS 578T breast = system: HS 578T breast
# HT29 colon = system: HT29 colon
# IGROV1 ovarian = system: IGROV1 ovarian
# K-562 leukemia = system: K-562 leukemia
# KM12 colon = system: KM12 colon
# LOX IMVI melanoma = system: LOX IMVI melanoma
# M14 melanoma = system: M14 melanoma
# MALME-3M melanoma = system: MALME-3M melanoma
# MCF7 breast = system: MCF7 breast
# MDA-MB-231 breast = system: MDA-MB-231 breast
# MDA-MB-435 = system: MDA-MB-435
# MDA-N = system: MDA-N
# NCI-H226 lung = system: NCI-H226 lung
# NCI-H23 lung = system: NCI-H23 lung
# NCI-H460 lung = system: NCI-H460 lung
# NCI-H522 lung = system: NCI-H522 lung
# NCI/ADR-RES ovarian = system: NCI/ADR-RES ovarian
# OVCAR-3 ovarian = system: OVCAR-3 ovarian
# OVCAR-4 ovarian = system: OVCAR-4 ovarian
# OVCAR-5 ovarian = system: OVCAR-5 ovarian
# OVCAR-8 ovarian = system: OVCAR-8 ovarian
# PC-3 prostate = system: PC-3 prostate
# RPMI-8226 leukemia = system: RPMI-8226 leukemia
# RXF 393 renal = system: RXF 393 renal
# SF-268 CNS = system: SF-268 CNS
# SF-295 CNS = system: SF-295 CNS
# SF-539 CNS = system: SF-539 CNS
# SK-MEL-2 melanoma = system: SK-MEL-2 melanoma
# SK-MEL-28 melanoma = system: SK-MEL-28 melanoma
# SK-MEL-5 melanoma = system: SK-MEL-5 melanoma
# SK-OV-3 ovarian = system: SK-OV-3 ovarian
# SN12C renal = system: SN12C renal
# SNB-19 CNS = system: SNB-19 CNS
# SNB-75 CNS = system: SNB-75 CNS
# SR leukemia = system: SR leukemia
# SW-620 colon = system: SW-620 colon
# T-47D breast = system: T-47D breast
# TK-10 renal = system: TK-10 renal
# U251 CNS = system: U251 CNS
# UACC-257 melanoma = system: UACC-257 melanoma
# UACC-62 melanoma = system: UACC-62 melanoma
# UO-31 renal = system: UO-31 renal
# HCC-2998 colon = system: HCC-2998 colon
# MOLT-4 leukemia = system: MOLT-4 leukemia
smiles,measurement,setting,value
CCC1CC(=O)N(SCC(N)C(=O)O)C1=O (configuration not stated),TGI,786-0 renal,> 100 µM
same,TGI,A498 renal,> 100 µM
same,TGI,A549 NSCLC,> 100 µM
same,TGI,ACHN renal,> 100 µM
same,TGI,BT-549 breast,> 100 µM
same,TGI,CAKI-1 renal,> 100 µM
same,TGI,CCRF-CEM leukemia,> 100 µM
same,TGI,COLO 205 colon,> 100 µM
same,TGI,DU-145 prostate,> 100 µM
same,TGI,EKVX NSCLC,> 100 µM
same,TGI,HCT-116 colon,> 100 µM
same,TGI,HCT-15 colon,> 100 µM
same,TGI,HL-60(TB) leukemia,> 100 µM
same,TGI,HOP-62 NSCLC,> 100 µM
same,TGI,HOP-92 NSCLC,> 100 µM
same,TGI,HS 578T breast,> 100 µM
same,TGI,HT29 colon,> 100 µM
same,TGI,IGROV1 ovarian,> 100 µM
same,TGI,K-562 leukemia,> 100 µM
same,TGI,KM12 colon,> 100 µM
same,TGI,LOX IMVI melanoma,> 100 µM
same,TGI,M14 melanoma,> 100 µM
same,TGI,MALME-3M melanoma,> 100 µM
same,TGI,MCF7 breast,> 100 µM
same,TGI,MDA-MB-231 breast,> 100 µM
same,TGI,MDA-MB-435,> 100 µM
same,TGI,MDA-N,> 100 µM
same,TGI,NCI-H226 lung,> 100 µM
same,TGI,NCI-H23 lung,> 100 µM
same,TGI,NCI-H460 lung,> 100 µM
same,TGI,NCI-H522 lung,> 100 µM
same,TGI,NCI/ADR-RES ovarian,> 100 µM
same,TGI,OVCAR-3 ovarian,> 100 µM
same,TGI,OVCAR-4 ovarian,> 100 µM
same,TGI,OVCAR-5 ovarian,> 100 µM
same,TGI,OVCAR-8 ovarian,> 100 µM
same,TGI,PC-3 prostate,> 100 µM
same,TGI,RPMI-8226 leukemia,> 100 µM
same,TGI,RXF 393 renal,> 100 µM
same,TGI,SF-268 CNS,> 100 µM
same,TGI,SF-295 CNS,> 100 µM
same,TGI,SF-539 CNS,> 100 µM
same,TGI,SK-MEL-2 melanoma,> 100 µM
same,TGI,SK-MEL-28 melanoma,> 100 µM
same,TGI,SK-MEL-5 melanoma,> 100 µM
same,TGI,SK-OV-3 ovarian,> 100 µM
same,TGI,SN12C renal,> 100 µM
same,TGI,SNB-19 CNS,> 100 µM
same,TGI,SNB-75 CNS,> 100 µM
same,TGI,SR leukemia,> 100 µM
same,TGI,SW-620 colon,> 100 µM
same,TGI,T-47D breast,> 100 µM
same,TGI,TK-10 renal,> 100 µM
same,TGI,U251 CNS,> 100 µM
same,TGI,UACC-257 melanoma,> 100 µM
same,TGI,UACC-62 melanoma,> 100 µM
same,TGI,UO-31 renal,> 100 µM
CC(/C=C/c1ccc([N+](=O)[O-])o1)=N/N1CC(CN2CCOCC2)OC1=O (configuration not stated),TGI,786-0 renal,> 100 µM
same,TGI,A498 renal,83.9 µM
same,TGI,A549 NSCLC,98.5 µM
same,TGI,ACHN renal,34.2 µM
same,TGI,BT-549 breast,24.2 µM
same,TGI,CAKI-1 renal,40.7 µM
same,TGI,CCRF-CEM leukemia,47.3 µM
same,TGI,COLO 205 colon,29.8 µM
same,TGI,DU-145 prostate,60.4 µM
same,TGI,EKVX NSCLC,> 100 µM
same,TGI,HCC-2998 colon,> 100 µM
same,TGI,HCT-116 colon,56.4 µM
same,TGI,HCT-15 colon,40.3 µM
same,TGI,HL-60(TB) leukemia,55.7 µM
same,TGI,HOP-62 NSCLC,> 100 µM
same,TGI,HOP-92 NSCLC,30.5 µM
same,TGI,HS 578T breast,> 100 µM
same,TGI,HT29 colon,> 100 µM
same,TGI,K-562 leukemia,61.1 µM
same,TGI,KM12 colon,> 100 µM
same,TGI,LOX IMVI melanoma,> 100 µM
same,TGI,M14 melanoma,40.3 µM
same,TGI,MALME-3M melanoma,41.3 µM
same,TGI,MCF7 breast,27 µM
same,TGI,MDA-MB-231 breast,> 100 µM
same,TGI,MDA-MB-435,42.2 µM
same,TGI,MDA-N,35.6 µM
same,TGI,MOLT-4 leukemia,68.6 µM
same,TGI,NCI-H226 lung,52.1 µM
same,TGI,NCI-H23 lung,49.8 µM
same,TGI,NCI-H460 lung,46.9 µM
same,TGI,NCI/ADR-RES ovarian,95.9 µM
same,TGI,OVCAR-3 ovarian,42.8 µM
same,TGI,OVCAR-4 ovarian,29.7 µM
same,TGI,OVCAR-5 ovarian,> 100 µM
same,TGI,OVCAR-8 ovarian,35.3 µM
same,TGI,PC-3 prostate,68 µM
same,TGI,RPMI-8226 leukemia,41.9 µM
same,TGI,SF-268 CNS,51.9 µM
same,TGI,SF-295 CNS,> 100 µM
same,TGI,SF-539 CNS,48.8 µM
same,TGI,SK-MEL-2 melanoma,34.6 µM
same,TGI,SK-MEL-28 melanoma,38.2 µM
same,TGI,SK-MEL-5 melanoma,28.6 µM
same,TGI,SK-OV-3 ovarian,> 100 µM
same,TGI,SN12C renal,> 100 µM
same,TGI,SNB-19 CNS,> 100 µM
same,TGI,SR leukemia,50.4 µM
same,TGI,SW-620 colon,77.3 µM
same,TGI,T-47D breast,41.2 µM
same,TGI,TK-10 renal,> 100 µM
same,TGI,U251 CNS,> 100 µM
same,TGI,UACC-257 melanoma,36.5 µM
same,TGI,UACC-62 melanoma,52.3 µM
same,TGI,UO-31 renal,45.4 µM
